What was measured:
HT-22 [1] = assay: Maximum tolerated concentration required for neurotoxicity on murine HT-22 hippocampal cell culture, monitored by MTT reduction assay tested in vitro; type: functional, Mus musculus
HT-22 [2] = assay: Compound was tested in vitro for its neuroprotective activity against L-homocysteic acid(L-HCA) cytotoxicity in murine HT-22 hippocampal cell culture monitored by MTT reduction assay; type: functional, Mus musculus
HT-22 [3] = assay: Tested in vitro for neurotoxicity on murine HT-22 hippocampal cell culture, monitored by LDH assay.; type: functional; conditions: Mus musculus, read-out: TC50 (the source's name)
HT-22 [4] = assay: Maximum tolerated concentration required for neurotoxicity on murine HT-22 hippocampal cell culture, monitored by LDH assay tested in vitro; type: functional, Mus musculus
HT-22 [5] = assay: Tested in vitro for its neuroprotective activity against L-homocysteic acid(L-HCA) cytotoxicity, in murine HT-22 hippocampal cell culture, monitored by LDH assay.; type: functional, Mus musculus
HT-22 [6] = assay: Tested in vitro for neurotoxicity on murine HT-22 hippocampal cell culture, monitored by MTT reduction assay; type: functional; conditions: Mus musculus, read-out: TC50 (the source's name)
[7] = Safety index (MTC/PC50); type: toxicity; conditions: read-out: Safety index
HT-22 [8] = assay: Tested in vitro for its neuroprotective activity against L-homocysteic acid(L-HCA) cytotoxicity, in murine HT-22 hippocampal cell culture, monitored by MTT reduction assay; type: functional, Mus musculus

| SMILES | MTC (HT-22 [1]) [µM] | PC50 (HT-22 [2]) [µM] | CC50 (HT-22 [3]) [µM] | MTC (HT-22 [4]) [µM] | PC50 (HT-22 [5]) [µM] | CC50 (HT-22 [6]) [µM] | selectivity ratio [7] | PC50 (HT-22 [8]) [µM] |
| --- | --- | --- | --- | --- | --- | --- | --- | --- |
| Cc1c(C)c2c(c(C)c1O)CC[C@@](C)(CCC[C@H](C)CCC[C@H](C)CCCC(C)C)O2 [ALPHA-TOCOPHEROL] | >200 | 0.8 | > 200 | >200 | 1.7 | > 200 | > 250 | – |
| O=C(c1cc(O)c(O)c(O)c1)c1ccc(O)c(O)c1O [EXIFONE] | 10 | – | 91 | 50 | >10 | 34 | – | >10 |
